Results taken from US7414043B2, “9-α-substituted estratrienes as selectively active estrogens” (priority 2002, dated 2008).
Like-named read-outs stand apart in the source and are kept apart here.

How the values were obtained:
[1] = test system: estrogen receptor preparations from rat uteri; assay: Competitive 3H-estradiol binding, rat uterus cytosol; settings: for RBA Rat Uterus: Table 2, 3H-estradiol as ligand
[2] = test system: estrogen receptor preparations from rat prostates; assay: Competitive 3H-estradiol binding, rat prostate cytosol; settings: for RBA Rat Prostate: Table 2, 3H-estradiol as ligand; for binding affinity to estrogen receptor of rat prostates compared with rat uteri: qualitative comparison prostate ER versus uterus ER
adult female rats = assay: Dissociation of action ovary/uterus and pituitary gland: ovulation and uterus weight; type: in vivo, rat
Protocol: The studies with respect to the action on uterus growth and ovulation (indirect effect by influencing the secretion of pituitary gland hormones) are performed on adult female rats (body weight of 220-250 g). The substances are subcutaneously administered four times on four consecutive days. The first administration is carried out in the metestrus. One day after the last administration, the autopsy is carried out. The number of ovocytes in the tube (effect on the ovulation) as well as the uterus weight are determined.

[3] = test system: GnRH antagonist-treated animals; assay: Ovary study, ovary weight in GnRH antagonist (Cetrorelix)-treated juvenile rats; type: in vivo, rat
Protocol: (§1) The substances were tested in vivo on hypophysectomized juvenile rats. In a modification of this operative method, a GnRH antagonist is administered to the animals. It is examined whether the substance stimulates follicular proliferation (maturation) in the ovary. The ovary weight is the measurement parameter.
(§2) In each case, five animals (body weight 40-50 g) are assigned randomly to the treatment groups. The animals are fed as much as they want with a standard diet (altromin) in Makrolon cages in air-conditioned rooms with a lighting program (10 hours of darkness, 14 hours of light) and are given acidified tap water to drink.
(§3) In both cases, the animals are sacrificed 24 hours after the last administration, and the ovary weight is determined.

hERβ [4] = settings: cited from earlier work
[5] = test system: hypophysectomized juvenile rats; assay: Ovary study, ovary weight in hypophysectomized juvenile rats; type: in vivo, rat; settings: 0.5 mg/animal/day s.c. over 4 days, compared with estradiol 0.1 mg/animal/day
Protocol: as §1, §2, §3

hERβ [6] = assay: Relative binding affinity to hERβ (Kuiper et al.); design: species or system human; settings: quotient of RBA hERβ / hERα
Text: In this case, it is assumed that ERβ predominates in the rat prostates over ERα, and ERα predominates in rat uteri over ERβ.

[7] = Table 1, 3H-estradiol as ligand, estradiol = 100

Row | Compound | RBA Rat Uterus [1] | RBA Rat Prostate [2] | binding affinity to estrogen receptor of rat prostates compared with rat uteri [2] | also measured
1 | 9α-(2′,2′-Difluorovinyl)-18a-homo-estra-1,3,5(10)-triene-3,16α-diol [Compound 5] | 0.2 | 6 | higher binding affinity to the estrogen receptor of rat prostates | 
2 | C[C@]12CC[C@@H]3c4ccc(O)cc4CC[C@H]3[C@@H]1CC[C@@H]2O [Estradiol, reference compound] |  |  |  | ED50 of ovulation inhibition and increase in uterus weight (adult female rats; s.c. four times on four consecutive days): 0.004 mg/kg of body weight
3 | C=C[C@]12CC[C@]3(C)[C@@H](F)[C@H](O)C[C@H]3[C@@H]1CCc1cc(O)ccc12 [Compound 2, 17β-Fluoro-9α-vinyl-estra-1,3,5(10)-triene-3,16α-diol] | 2 | 200 | higher binding affinity to the estrogen receptor of rat prostates | action on ovary weight (FIG. 1) ([3]; GnRH antagonist-treated animals, 0.1 and 0.3 mg/animal/day, compared with estradiol 1 mg/animal/day): same action as the dose of 1 mg/animal/day of estradiol; action on ovary weight, low dosages (FIG. 2) ([3]; combination with Cetrorelix, 0.01, 0.03 mg/animal/day): show an ovary action and can eliminate the antagonistic effect of Cetrorelix
4 | C[C@]12CC[C@@H]3c4ccc(O)cc4CC[C@H]3[C@@H]1C[C@@H](O)[C@@H]2O [Estriol] |  |  |  | hERβ RBA* (hERβ [4]; relative binding affinity, estradiol = 100, cited from Kuiper et al.): 21
5 | C=C[C@]12CC[C@]3(C)C[C@H](O)C[C@H]3[C@@H]1CCc1cc(O)ccc12 [Compound 1, 9α-Vinylestra-1,3,5(10)-triene-3,16α-diol] | 1.2 | 100 | higher binding affinity to the estrogen receptor of rat prostates | effect on ovulation and uterus weight (adult female rats; s.c. on four days, up to a dose of 0.4 mg/kg of body weight): does not exert any effect; increase in ovary weight [5]: comparable increase in ovary weight
6 | C[C@]12CCC(O)CC1=CC[C@@H]1[C@@H]2CC[C@]2(C)C(O)CC[C@@H]12 (some centres unmarked) [5-Androstene-diol, reference compound] |  |  |  | ERβ/ERα (hERβ [6]): 3; Rat uterus ER(RBA) [1, 7]: 0.1; Rat prost. ER(RBA) [2, 7]: 5; prost. ER/uterus ER ([2]; ratio of RBA rat prostate ER / rat uterus ER): 50; hERβ RBA* (hERβ [4]): 17
7 | C[C@]12CC[C@]3(C=C(F)F)c4ccc(O)cc4CC[C@H]3[C@@H]1C[C@@H](O)C2 [Compound 4, 9α-(2′,2′-Difluorovinyl)-estra-1,3,5(10)-triene-3,16α-diol] | 0.2 | 4 | higher binding affinity to the estrogen receptor of rat prostates | 
